{"source": "paper PMC2435557", "about": "“Developing and applying a gene functional association network for anti-angiogenic kinase inhibitor activity assessment in an angiogenesis co-culture model” (BMC Genomics, 2008)", "key": {"[1]": {"test_system": "HUVEC cord formation in co-culture with NHDF", "assay": "HUVEC/NHDF cord formation co-culture assay (in vitro angiogenesis, high content imaging)", "type": "cell-based, human", "settings": "for EC50: Homo sapiens, cord area normalized to control group, mean of two to four independent experiments, sigmoidal dose-response fit, read-out: observed EC50 of cord formation inhibition (cord area)", "experimental": "In vitro HUVEC cord formation co-culture was performed using the AngioKit commercially available from TCScellworks (Buckingham, UK) adapted to a 24-well format. To test HUVEC and NHDF passage dependence effects, the co-culture was done in house adapted to a 96-well format. Briefly, HUVEC cells were co-cultured onto human dermal fibroblast feeder layers in Optimised medium (TCScellworks, Buckingham, UK) for a total of about 12 days. Treatment started the day when the plates were received; usually three to four days after initial plating. Medium with or without growth factors or compounds was replenished every 2 to 3 days. Cells were fixed with 70% cold ethanol at the end of the culture and processed for anti-CD31/Alexa 488 immunofluorescence. To visualize feeder layer fibroblasts, some cultures were stained using a polyclonal antibody against Vimentin (Abcam, Cambridge, Massachusetts) along with an Alexa 568 conjugated secondary antibody to examine the feeder cell integrity. Nuclear staining was performed using Hoechst staining (Invitrogen Molecular Probe, Carlsbad, California).\nImmunofluorescence stained co-culture plates were scanned using ArrayScan VTI (Cellomics, Pittsburgh, Pennsylvania) and the multi-parameter tube formation Bioapplication was used for quantification. Morphological measurements included cord length, width, area, percent connected cord, branching node and segment count, nuclei per cord, angiogenic index (expressed as the percentage of area covered by connected tube), etc. General cytotoxicity was monitored by examination of the nuclear staining of the feed layers."}, "[2]": {"set-up": "method as in PMID 15919970", "settings": "cited from earlier work"}}, "note": "Entries after “also recorded” stand apart in the source; their conditions may differ."}
{"compound": "O=C(Cc1ccc(-c2cnc3cc(-c4ccncc4)ccn23)cc1)Nc1cccc(C(F)(F)F)c1", "note": "[LY2401401]", "values": [{"measurement": "EC50", "setting": "[1]", "value": 9.2, "unit": "nM"}]}
{"compound": "Clc1ccc(Nc2nnc(Cc3ccncc3)c3ccccc23)cc1", "note": "[PTK787]", "values": [{"measurement": "EC50", "setting": "[1]", "value": 140, "unit": "nM"}, {"measurement": "outcome in clinical trials", "setting": "[2]", "value": "failed to achieve statistical significance"}]}
{"compound": "CCN(CC)CCNC(=O)c1c(C)[nH]c(/C=C2\\C(=O)Nc3ccc(F)cc32)c1C", "note": "[Sunitinib]", "values": [{"measurement": "effect on cord mass in length and area", "setting": "[1]; 30 nM", "value": "significantly inhibited"}, {"measurement": "number of connected cords, branching nodes, and segment measurements", "setting": "[1]; 30 nM", "value": "all significantly reduced"}, {"measurement": "number of nuclei per tube", "setting": "[1]; 30 nM", "value": "significantly reduced"}, {"measurement": "effect on angiogenesis / cord formation", "setting": "[1]; 30 nM compound, compared to medium control", "value": "significantly inhibited angiogenesis; also recorded: drastically inhibited cord formation"}, {"measurement": "EC50", "setting": "[1]", "value": 39, "unit": "nM"}]}
{"compound": "VEGF", "values": [{"measurement": "effect on angiogenesis / cord formation", "setting": "[1]; 20 ng/ml VEGF added to culture", "value": "significantly increased angiogenesis; also recorded: greatly enhanced"}]}
